This passage reports IC50 results from US8158655B2, “Sulfonamide derivatives” (Hoffmann-La Roche Inc., priority 2007, dated 2012).

Molecules are shown by their SMILES. Read-outs that look alike come from different tables or passages of the source.

This experiment deals with T1, Chymase purified from human skin mast cells (Homo sapiens, UniProt P23946).
T1 construct: Chymase purified from human skin mast cells was obtained from Calbiochem; purchased Calbiochem (Merck Biosciences, San Diego, Calif., USA); host or cells: human skin mast cells (natural source)
T1 sequence (P23946 22-247): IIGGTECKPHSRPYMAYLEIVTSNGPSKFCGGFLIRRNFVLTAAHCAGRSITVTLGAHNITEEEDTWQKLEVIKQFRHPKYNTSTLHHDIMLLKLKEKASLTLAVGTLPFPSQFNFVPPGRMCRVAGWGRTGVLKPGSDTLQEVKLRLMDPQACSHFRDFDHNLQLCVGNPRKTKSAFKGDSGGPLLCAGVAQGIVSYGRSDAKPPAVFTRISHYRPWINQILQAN
The experiment can be described thus: chymase peptide substrate assay (AAPF-AMC fluorescence). In kind it is biochemical. As to the method: The peptide was synthesized with a purity of 95% from Bachem, Bubendorf, Switzerland). Chymase purified from human skin mast cells was obtained from Calbiochem (Merck Biosciences, San Diego, Calif., USA). The assay buffer was 0.15 M NaCl, 0.05M, Tris HCl, 0.05% CHAPS (3-[(3-Cholamidopropyl)-dimethylammonio]-1-propane sulphonate), 0.1 mg/ml Heparin (Heparin sodium, Sigma, porcine intestinal mucosa), 0.02 mM AAPF-substrate, 1 nM Chymase at pH 7.4. The assay was performed in 96-well plates (Packard Optiplate), with a 0.05 ml volume at room temperature. Chymase activity was indicated by the initial rate of increase in fluorescence at 340/440 nm (excitation/emission) from free 7-amino-4-methylcoumarin released from the substrate. Inhibition of the activity by inhibitory compounds was read after 30 min pre-incubation with the chymase at room temperature in assay buffer without AAPF-substrate. The assay was then started by addition of the indicated concentration of AAPF-substrate.

The mark [1] stands for this setting: 0.02 mM AAPF-substrate, 1 nM Chymase, pH 7.4, room temperature, 30 min pre-incubation, read-out: IC50.

In the case of `CCc1cc(-c2ccncc2)ccc1NS(=O)(=O)c1sc2ccc(F)cc2c1C` [Example 16, 5-Fluoro-3-methyl-benzo[b]thiophene-2-sulfonic acid(2-ethyl-4-pyridin-4-yl-phenyl)-amide], the IC50 under setting [1] came to 106 nM.
On the same count and under the same terms, then `Cc1c(S(=O)(=O)Nc2ccc(C3CCNCC3)cc2S(C)(=O)=O)sc2ccc(F)cc12` [Example 21, 5-Fluoro-3-methyl-benzo[b]thiophene-2-sulfonic acid(2-methanesulfonyl-4-piperidin-4-yl-phenyl)-amide], with 3 nM.
Turning to `Cc1c(S(=O)(=O)Nc2ccc(-c3ccncc3)cc2C(F)(F)F)sc2ccc(F)cc12` [Example 2, 5-Fluoro-3-methyl-benzo[b]thiophene-2-sulfonic acid(4-pyridin-4-yl-2-trifluoromethyl-phenyl)-amide], it took 35 nM to reach half-maximal inhibition (IC50).

A word on the IC50: it is the midpoint of a concentration-inhibition curve.
